Laboratory results published in patent US20230174484A1, “ANTAGONISTS OF GPR39 PROTEIN” (Oregon Health & Science University, priority 2020, published 2023).

Biological target: T1, human GPR39 receptor (Homo sapiens, UniProt O43194)
T1 construct: PC3 Cells, Expressing the Endogenous Human GPR39 Receptor; endogenous in cells; host or cells: PC3 (human prostate adenocarcinoma) cells
T1 sequence (O43194 1-453): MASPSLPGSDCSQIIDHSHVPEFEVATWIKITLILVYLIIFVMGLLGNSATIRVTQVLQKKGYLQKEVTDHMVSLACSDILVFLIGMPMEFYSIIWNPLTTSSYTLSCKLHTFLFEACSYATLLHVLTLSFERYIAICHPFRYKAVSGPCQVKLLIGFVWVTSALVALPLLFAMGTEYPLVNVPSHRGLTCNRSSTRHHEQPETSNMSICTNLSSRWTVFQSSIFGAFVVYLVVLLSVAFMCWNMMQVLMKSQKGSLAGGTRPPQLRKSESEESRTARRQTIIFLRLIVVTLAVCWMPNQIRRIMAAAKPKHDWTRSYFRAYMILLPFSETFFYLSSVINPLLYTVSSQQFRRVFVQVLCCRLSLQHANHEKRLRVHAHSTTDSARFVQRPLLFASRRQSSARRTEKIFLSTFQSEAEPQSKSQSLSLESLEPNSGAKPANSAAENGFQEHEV
Test: Measurement of intracellular calcium response in PC3 cells (FLIPR), antagonism of the C3 agonist response
Format: cell-based
Conditions: functional pKi (modified Cheng-Prusoff), inhibition of the C3 (TC-G 1008) response at EC90, 30 μM ZnCl2, read-out: fpKi activity
Procedure: Human prostate adenocarcinoma (PC3) cells endogenously expressing human GPR39 receptor were seeded into black walls clear-base 384-well plates at a density of 7,500 cells per well in DM EM (Low Glucose) supplemented with 10% heat-inactivated foetal bovine serum and 1% of Pen/Strep and grown overnight at 37° C., 5% CO2. After washing with assay buffer (20 mM HEPES, 137 mM NaCI, 5.4 mM KCI, 10 mM glucose, 0.8 mM MgSO4, 1.3 mM CaCl2, 0.3 mM Na2HPO4, 0.4 mM KH2PO4 4.2 mM NaHCO3, pH 7.4), cells were incubated with Calcium-6 probe (Molecular Devices) at 37° C. for 2h and then equilibrated at RT for 30 minutes on metal block. The fluorescence was measured in real time by Fluorometric Imaging Plate Reader (FLIPR TETRA, Molecular Devices) (excitation wavelength at 470-495 nm, emission wavelength at 515-575 nm).
Compounds of invention were serially diluted in neat DMSO at 1000 fold concentrations and plated into 384-well plates and then 200-fold diluted in assay buffer containing 150 uM ZnCl2 (30 μM final concentration) and […].
Fluorescence was monitored throughout the run assay. The peak of Ca2+stimulation (baseline subtracted) was expressed as percentage of the maximal inhibition of the EC90 C3 response and was plotted versus the concentration of test compound. Curve fitting and IC50 estimations are carried out using a four-parameter logistic model using XLfit Software.
The potency of compounds was reported as functional pKi (—Log10Ki) obtained using the modified Cheng-Prusoff relationship (Cheng, Y., Prusoff, W. H. 1973.)
fKi =IC50/(1+[L]/EC50) where IC50 is the concentration of antagonist required for 50% inhibition of the maximum response, [L] is the concentration of the agonist used (EC90) and EC50 is the concentration of agonist need to induced 50% of the maximum response (obtained in each experimental plate).
An fpKi less than 5.2 is reported as “+/±”. An fpKi ranging from 5.2 to 5.9 is reported as “+”. An fpKi from 6.0 to 6.5 is reported as “++”. An fpKi from 6.6 to 7.2 is reported as “+++”. An fpKi equal to or greater than 7.3 is reported as “++++”.

Row | SMILES | Ki [nM]
1 | Cc1ccn(-c2cc(NC(=O)C3CC3)ccc2C(=O)N2CCN(C)CC2c2ccccc2)n1 (racemic) [Example 155c, N-[4-(4-methyl-2-phenylpiperazine-1-carbonyl)-3-(3-methylpyrazol-1-yl)phenyl]cyclopropanecarboxamide] | 316 to 1000
2 | O=C(Nc1ccc(C(=O)N2CCNCC2c2ccccc2F)c(N2CCCC2)c1)C1CC1 (racemic) [Example 157] | 1260 to 6310
3 | O=C(Nc1ccc(C(=O)N2CCOCC2c2ccccc2)c(N2CCCC2)c1)C1CC1 (racemic) [Example 167, N-[4-(3-phenylmorpholine-4-carbonyl)-3-pyrrolidin-1-ylphenyl]cyclopropanecarboxamide] | 63.1 to 251
4 | O=C(Nc1ccc(C(=O)N2CC[S+]([O-])CC2c2ccccc2)c(N2CCCC2)c1)C1CC1 (racemic) [Example 169, N-[4-(1-oxo-3-phenyl-1,4-thiazinane-4-carbonyl)-3-pyrrolidin-1-ylphenyl]cyclopropanecarboxamide] | 1260 to 6310
5 | CN1CCN(C(=O)c2ccc(NC(=O)C3CC3)cc2N2CCCC2)C(c2ccccc2Cl)C1 (racemic) [Example 170c, N-[4-[2-(2-chlorophenyl)-4-methylpiperazine-1-carbonyl]-3-pyrrolidin-1-ylphenyl]cyclopropanecarboxamide] | ≤ 50.1
6 | CN1CCN(C(=O)c2ccc(NC(=O)C3CC3)cc2N2CCCC2)C(c2cccc(Cl)c2)C1 (racemic) [Example 171c, N-[4-[2-(3-chlorophenyl)-4-methylpiperazine-1-carbonyl]-3-pyrrolidin-1-ylphenyl]cyclopropanecarboxamide] | ≤ 50.1
7 | CN1CCN(C(=O)c2ccc(NC(=O)C3CC3)cc2N2CCCC2)C(c2cncc(Cl)c2)C1 (racemic) [Example 172, N-[4-[2-(5-chloropyridin-3-yl)-4-methylpiperazine-1-carbonyl]-3-pyrrolidin-1ylphenyl]cyclopropanecarboxamide] | 63.1 to 251
8 | CN1CCN(C(=O)c2ccc(NC(=O)C3CC3)cc2N2CCCC2)C(c2cccnc2)C1 (racemic) [Example 173, N-[4-(4-methyl-2-pyridin-3-ylpiperazine-1-carbonyl)-3-pyrrolidin-1-ylphenyl]cyclopropanecarboxamide] | 316 to 1000
9 | CN1CCN(C(=O)c2ccc(NC(=O)C3CC3)cc2N2CCCC2)C(c2ccncc2Cl)C1 (racemic) [Example 174, N-[4-[2-(3-chloropyridin-4-yl)-4-methylpiperazine-1-carbonyl]-3-pyrrolidin-1-ylphenyl]cyclopropanecarboxamide] | 63.1 to 251
10 | CN1CCN(C(=O)c2ccc(NC(=O)C3CC3)cc2N2CCCC2)C(c2cncnc2)C1 (racemic) [Example 175, N-[4-(4-methyl-2-pyrimidin-5-ylpiperazine-1-carbonyl)-3-pyrrolidinylphenyl]cyclopropanecarboxamide] | 316 to 1000
11 | CN1CCN(C(=O)c2ccc(NC(=O)C3CC3)cc2N2CCCC2)C(c2ccc(Cl)cc2)C1 (racemic) [Example 176, N-[4-[2-(4-chlorophenyl)-4-methylpiperazine-1-carbonyl]-3-pyrrolidin-1-ylphenyl]cyclopropanecarboxamide] | 316 to 1000
12 | O=C(Nc1ccc(C(=O)N2CCS(=O)(=O)CC2)c(N2CCC(C(F)(F)F)C2)c1)C1CC1 (racemic) [Example 183c, N-[4-(1,1-dioxo-1,4-thiazinane-4-carbonyl)-3-[3-(trifluoromethyl)pyrrolidin-1-yl]phenyl]cyclopropanecarboxamide] | 63.1 to 251
13 | O=C(Nc1ccc(C(=O)N2CCS(=O)(=O)CC2)c(N2CCCC(C(F)(F)F)C2)c1)C1CC1 (racemic) [Example 185c, N-[4-(1,1-dioxo-1,4-thiazinane-4-carbonyl)-3-[3-(trifluoromethyl)piperidin-1-yl]phenyl]cyclopropanecarboxamide] | 63.1 to 251
14 | O=C(Nc1ccc(C(=O)N2CCS(=O)(=O)CC2)c(N2CCOC(C(F)(F)F)C2)c1)C1CC1 (racemic) [Example 186, N-[4-(1,1-dioxo-1,4-thiazinane-4-carbonyl)-3-[2-(trifluoromethyl)morpholinyl]phenyl]cyclopropanecarboxamide] | 316 to 1000
